Source: patent US11548915B2, “Composition for overcoming resistance to EGFR-targeting agent” (Pinetree Therapeutics, Inc., priority 2016, dated 2023)

Columns and labels:
Test in all cases: WST-1 cell viability assay
A549 = conditions: A549, NRP1-expressing; 0, 1, 2, and 4 μM, 48 hours
Calu-1 = conditions: Calu-1, NRP1-expressing; 0, 1, 2, and 4 μM, 48 hours
HCC44 = conditions: HCC44, NRP1-expressing; 0, 1, 2, and 4 μM, 48 hours
H441 = conditions: H441, NRP1-expressing; 0, 1, 2, and 4 μM, 48 hours
H1299 = conditions: H1299, NRP1-expressing; 0, 1, 2, and 4 μM, 48 hours
SK-LU-1 = conditions: SK-LU-1, NRP1-expressing; 0, 1, 2, and 4 μM, 48 hours
H460 = conditions: H460, expressing no NRP1; 0, 1, 2, and 4 μM, 48 hours
Calu-3 = conditions: Calu-3, NRP1-expressing; 0, 1, 2, and 4 μM, 48 hours

Substance | cell growth inhibitory activity (WST-1) (A549) | cell growth inhibitory activity (WST-1) (Calu-1) | cell growth inhibitory activity (WST-1) (HCC44) | cell growth inhibitory activity (WST-1) (H441) | cell growth inhibitory activity (WST-1) (H1299) | cell growth inhibitory activity (WST-1) (SK-LU-1) | cell growth inhibitory activity (WST-1) (H460) | cell growth inhibitory activity (WST-1) (Calu-3)
Pnm-TPP11: TPP11 peptide fused to C-terminus of Pnm heavy chain by (G4S)3 linker; heavy chain SEQ ID NO: 10, light chain SEQ ID NO: 14 | showed the same inhibitory activity against cell growth | showed the same inhibitory activity against cell growth | showed the same inhibitory activity against cell growth | showed cell growth inhibitory activity | showed cell growth inhibitory activity | showed cell growth inhibitory activity | showed no effect | showed the same inhibitory activity against cell growth
Panitumumab [Pnm, reference compound] | showed the same inhibitory activity against cell growth | showed the same inhibitory activity against cell growth | showed the same inhibitory activity against cell growth | only Pnm-TPP11 showed cell growth inhibitory activity, unlike Pnm | only Pnm-TPP11 showed cell growth inhibitory activity, unlike Pnm | only Pnm-TPP11 showed cell growth inhibitory activity, unlike Pnm |  | showed the same inhibitory activity against cell growth
